This passage reports IC50 results from US10000516B2 (priority 2015, dated 2018).

The target of one test is T1, Human Factor D (Homo sapiens, UniProt P00746).
T1 construct: purified from human serum; purchased Complement Technology, Inc; host or cells: human serum (natural protein, not recombinant)
T1 sequence (P00746 26-253): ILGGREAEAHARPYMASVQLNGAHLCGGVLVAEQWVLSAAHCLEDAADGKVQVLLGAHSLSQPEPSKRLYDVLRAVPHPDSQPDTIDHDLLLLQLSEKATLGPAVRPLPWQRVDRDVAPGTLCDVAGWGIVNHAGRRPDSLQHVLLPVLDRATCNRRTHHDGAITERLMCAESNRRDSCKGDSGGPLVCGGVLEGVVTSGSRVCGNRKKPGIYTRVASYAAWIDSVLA
Put plainly: Human Factor D assay (Z-L-Lys-SBzl/DTNB, absorbance at 405 nm). It is filed as biochemical.
Details: not given
The procedure: Example 44. Human Factor D Assay
Human Factor D (purified from human serum, Complement Technology, Inc.) at 80 nM final concentration was incubated with test compound at various concentrations for 5 minutes at room temperature in 50 mM Tris, 1M NaCl, pH 7.5. A synthetic substrate Z-L-Lys-SBzl and DTNB (Ellman's reagent) are added to final concentrations of 100 µM each. Absorbance at 405 nm (A405) was recorded at 30 second intervals for 30 minutes using a microplate spectrophotometer. IC50 values are calculated by nonlinear regression of complement Factor D reaction rates as a function of test compound concentration.
The IC50 is the concentration at which inhibition is half-maximal. The molecule `CCCCOP(=O)(OCCCC)c1ccc2c(C(C)=O)cn(CC(=O)N3C[C@H](F)C[C@H]3C(=O)NCc3cccc(Cl)c3F)c2c1` [Compound 20, dibutyl 3-acetyl-1-(2-((2S,4R)-2-(3-chloro-2-fluorobenzylcarbamoyl)-4-fluoropyrrolidin-1-yl)-2-oxoethyl)-1H-indol-6-ylphosphonate] registered an IC50 of less than 1 µM. `CC(=O)c1cn(CC(=O)N2[C@@H]3CCC[C@@H]3C[C@H]2C(=O)NCc2cccc(Cl)c2F)c2cc(P(=O)(O)O)ccc12` [Compound 7, 3-acetyl-1-(2-((2S,3aR,6aR)-2-(3-chloro-2-fluorobenzylcarbamoyl)hexahydrocyclopenta [b]pyrrol-1(2H)-yl)-2-oxoethyl)-1H-indol-6-ylphosphonic acid] registered a half-inhibitory concentration (IC50) of less than 1 µM.

Staying with this test, now noted: Table 1; Human Factor D 80 nM, purified from human serum; substrate Z-L-Lys-SBzl; read-out: IC50.
For the molecule `CCOP(=O)(O)c1ccc2c(C(C)=O)cn(CC(=O)N3C[C@H](F)C[C@H]3C(=O)NCc3cccc(Cl)c3F)c2c1` [Compound 2, ethyl hydrogen 3-acetyl-1-(2-((2S,4R)-2-(3-chloro-2-fluorobenzylcarbamoyl)-4-fluoropyrrolidin-1-yl)-2-oxoethyl)-1H-indol-6-ylphosphonate], the IC50 was less than 1 µM.

For `CCOP(=O)(O)c1ccc2c(c1)c(C(C)=O)cn2CC(=O)N1C[C@H](F)C[C@H]1C(=O)NCc1cccc(Cl)c1F` [Compound 9, ethyl hydrogen 3-acetyl-1-(2-((2S,4R)-2-(3-chloro-2-fluorobenzylcarbamoyl)-4-fluoropyrrolidin-1-yl)-2-oxoethyl)-1H-indol-5-ylphosphonate], the half-inhibitory concentration (IC50) is more than 10 µM. Consider `CCOP(=O)(OCC)c1ccc2c(C(C)=O)cn(CC(=O)N3C[C@H](F)C[C@H]3C(=O)NCc3cccc(Cl)c3F)c2c1` [Compound 1, diethyl 3-acetyl-1-(2-((2S,4R)-2-(3-chloro-2-fluorobenzylcarbamoyl)-4-fluoropyrrolidin-1-yl)-2-oxoethyl)-1H-indol-6-ylphosphonate], for which the IC50 was less than 1 µM. Still for that read-out and setting: the result for `CC(=O)c1cn(CC(=O)N2C[C@H](F)C[C@H]2C(=O)NCc2cccc(Cl)c2F)c2cc(P(=O)(OCOC(=O)C(C)(C)C)OCOC(=O)C(C)(C)C)ccc12` [Compound 26, ((3-acetyl-1-(2-((2S,4R)-2-(3-chloro-2-fluorobenzylcarbamoyl)-4-fluoropyrrolidin-1-yl)-2-oxoethyl)-1H-indol-6-yl)phosphoryl)bis(oxy)bis (methylene) bis(2,2-dimethylpropanoate)] reads less than 1 µM; that for `CC(=O)c1cn(CC(=O)N2C[C@H](F)C[C@H]2C(=O)NCc2cccc(Cl)c2F)c2cc(P(=O)(OCC(F)(F)F)OCC(F)(F)F)ccc12` [Compound 19, bis(2,2,2-trifluoroethyl) 3-acetyl-1-(2-((2S,4R)-2-(3-chloro-2-fluorobenzylcarbamoyl)-4-fluoropyrrolidin-1-yl)-2-oxoethyl)-1H-indol-6-ylphosphonate], less than 1 µM. Turning to `CCOP(=O)(c1ccccc1)c1ccc2c(C(C)=O)cn(CC(=O)N3C[C@H](F)C[C@H]3C(=O)NCc3cccc(Cl)c3F)c2c1` (stereo partly drawn) [Compound 23, ethyl 3-acetyl-1-(2-((2S,4R)-2-(3-chloro-2-fluorobenzylcarbamoyl)-4-fluoropyrrolidin-1-yl)-2-oxoethyl)-1H-indol-6-yl(phenyl)phosphinate], the IC50 is less than 1 µM. The same measure, in the same setting: the result for `CC(=O)c1cn(CC(=O)N2C[C@H](F)C[C@H]2C(=O)NCc2cccc(Cl)c2F)c2cc(P(=O)(O)OCOC(=O)C(C)(C)C)ccc12` [Compound 28, ((3-acetyl-1-(2-((2S,4R)-2-(3-chloro-2-fluorobenzylcarbamoyl)-4-fluoropyrrolidin-1-yl)-2-oxoethyl)-1H-indol-6-yl)(hydroxy)phosphoryloxy) methyl pivalate] reads less than 1 µM. Still for that read-out and setting: with `CC(=O)c1cn(CC(=O)N2C[C@H](F)C[C@H]2C(=O)NCc2cccc(Cl)c2F)c2cc(P(=O)(OCOC(=O)OC(C)C)OCOC(=O)OC(C)C)ccc12` [Compound 4, ((3-acetyl-1-(2-((2S,4R)-2-(3-chloro-2-fluorobenzylcarbamoyl)-4-fluoropyrrolidin-1-yl)-2-oxoethyl)-1H-indol-6-yl)phosphoryl)bis(oxy) bis(methylene) isopropyl dicarbonate] the figure was less than 1 µM; with `CC(=O)c1cn(CC(=O)N2C[C@H](F)C[C@H]2C(=O)NCc2cccc(Cl)c2F)c2cc(P(=O)(O)O)ccc12` [Compound 3, 3-acctyl-1-(2-((2S,4R)-2-(3-chloro-2-fluorobenzylcarbamoyl)-4-fluoropyrrolidin-1-yl)-2-oxoethyl)-1H-indol-6-ylphosphonic acid], less than 1 µM; with `CC(=O)c1cn(CC(=O)N2C[C@H](F)C[C@H]2C(=O)NCc2cccc(Cl)c2F)c2cc(P(=O)(O)OCOC(=O)OC(C)C)ccc12` [Compound 22, ((3-acetyl-1-(2-((2S,4R)-2-(3-chloro-2-fluorobenzylcarbamoyl)-4-fluoropyrrolidin-1-yl)-2-oxoethyl)-1H-indol-6-yl)(hydroxy)phosphoryloxy) methyl isopropyl carbonate], less than 1 µM. Consider `NC(=O)c1cn(CC(=O)N2C[C@H](F)C[C@H]2C(=O)NCc2cccc(Cl)c2F)c2cc(P(=O)(O)O)ccc12` [Compound 16, 3-carbamoyl-1-(2-((2S,4R)-2-(3-chloro-2-fluorobenzylcarbamoyl)-4-fluoropyrrolidin-1-yl)-2-oxoethyl)-1H-indol-6-ylphosphonic acid], for which the IC50 is less than 1 µM.

Turning to `NC(=O)c1nn(CC(=O)N2C[C@H](F)C[C@H]2C(=O)NCc2cccc(Cl)c2F)c2cc(P(=O)(O)O)ccc12` [Compound 18, 3-carbamoyl-1-(2-((2S,4R)-2-(3-chloro-2-fluorobenzylcarbamoyl)-4-fluoropyrrolidin-1-yl)-2-oxoethyl)-1H-indazol-6-ylphosphonic acid], the IC50 is less than 1 µM. On to `CCOP(=O)(OCC)c1ccc2c(C(=O)O)nn(CC(=O)N3C[C@H](F)C[C@H]3C(=O)NCc3cccc(Cl)c3F)c2c1` [Compound 12, 1-(2-((2S,4R)-2-(3-chloro-2-fluorobenzylcarbamoyl)-4-fluoropyrrolidin-1-yl)-2-oxoethyl)-6-(diethoxyphosphoryl)-1H-indazole-3-carboxylic acid], for which the IC50 was more than 10 µM. For `CCP(=O)(O)c1ccc2c(C(C)=O)cn(CC(=O)N3C[C@H](F)C[C@H]3C(=O)NCc3cccc(Cl)c3F)c2c1` [Compound 27, 3-acetyl-1-(2-((2S,4R)-2-(3-chloro-2-fluorobenzylcarbamoyl)-4-fluoropyrrolidin-1-yl)-2-oxoethyl)-1H-indol-6-yl(ethyl)phosphinic acid], the IC50 was less than 1 µM. With `CCOP(=O)(OCC)c1ccc2c(C(N)=O)cn(CC(=O)N3C[C@H](F)C[C@H]3C(=O)NCc3cccc(Cl)c3F)c2c1` [Compound 15, diethyl 3-carbamoyl-1-(2-((2S,4R)-2-(3-chloro-2-fluorobenzylcarbamoyl)-4-fluoropyrrolidin-1-yl)-2-oxoethyl)-1H-indol-6-ylphosphonate], the IC50 was less than 1 µM. As for `CC(=O)c1cn(CC(=O)N2C[C@H](F)C[C@H]2C(=O)NCc2cccc(Cl)c2F)c2cc(P(=O)(O)c3ccccc3)ccc12` [Compound 25, 3-acetyl-1-(2-((2S,4R)-2-(3-chloro-2-fluorobenzylcarbamoyl)-4-fluoropyrrolidin-1-yl)-2-oxoethyl)-1H-indol-6-yl(phenyl)phosphinic acid], the IC50 is less than 1 µM. With `CC(=O)c1cn(CC(=O)N2C[C@H](F)C[C@H]2C(=O)NCc2cccc(Cl)c2F)c2ccc(P(=O)(O)O)cc12` [Compound 10, 3-acetyl-1-(2-((2S,4R)-2-(3-chloro-2-fluorobenzylcarbamoyl)-4-fluoropyrrolidin-1-yl)-2-oxoethyl)-1H-indol-5-ylphosphonic acid], the half-maximal inhibitory concentration (IC50) was less than 1 µM.

Staying with this test, now noted: Table 3; Human Factor D 80 nM, purified from human serum; substrate Z-L-Lys-SBzl; read-out: IC50 (Stars).
With `CC(=O)c1nn(CC(=O)N2C[C@H](F)C[C@H]2C(=O)Nc2cccc(Br)n2)c2cc(P(=O)(O)O)ccc12` [Compound 105, (3-acetyl-1-(2-((2S,4R)-2-((6-bromopyridin-2-yl)carbamoyl)-4-fluoropyrrolidin-1-yl)-2-oxoethyl)-1H-indazol-6-yl)phosphonic acid], the 50% inhibitory concentration (IC50) is less than 1 µM.

In the case of `CC(=O)c1cn(CC(=O)N2C[C@H](F)C[C@H]2CCNS(=O)(=O)c2ccccc2)c2ccc(P(=O)(O)O)cc12` [Compound 96, (3-acetyl-1-(2-((2R,4R)-4-fIuoro-2-(2-(phenylsulfonamido)ethyl)pyrrolidin-1-yl)-2-oxoethyl)-1H-indol-5-yl)phosphonic acid], the IC50 is more than 10 µM.

For the molecule `CC(=O)c1nn(CC(=O)N2[C@H](C(=O)Nc3cccc(Br)n3)C[C@@]3(C)C[C@@H]23)c2cc(P(=O)(O)O)ccc12` [Compound 106, (3-acetyl-1-(2-((1R,3S,5R)-3-((6-bromopyridin-2-yl)carbamoyl)-5-methyl-2-azabicyclo[3.1.0]hexan-2-yl)-2-oxoethyl)-1H-indazol-6-yl) phosphonic acid], the half-inhibitory concentration (IC50) is less than 1 µM. As to `CCOP(=O)(OCC)c1ccc2c(c1)c(C(C)=O)cn2CC(=O)N1C[C@H](F)C[C@H]1CCNS(=O)(=O)c1ccccc1` [Compound 95, diethyl (3-acetyl-1-(2-((2R,4R)-4-fluoro-2-(2-(phenylsulfonamido)ethyl)pyrrolidin-1-yl)-2-oxoethyl)-1H-indol-5-yl)phosphonate], the concentration for half-maximal inhibition (IC50) was more than 10 µM. Take `CC(=O)c1cn(CC(=O)N2C[C@H](F)C[C@H]2C(=O)NCCc2ccccc2)c2ccc(P(=O)(O)O)cc12` [Compound 79, (3-acetyl-1-(2-((2S,4R)-4-fluoro-2-(phenethylcarbamoyl)pyrrolidin-1-yl)-2-oxoethyl)-1H-indol-5-yl)phosphonic acid]: the 50% inhibitory concentration (IC50) was more than 10 µM.
